US6831199B1, “Pyrimidine compounds and derivatives thereof” (G. D. Searle & Co., priority 1995, dated 2004)
Counter-ions that a name gives are not always drawn.

What was measured:
[1] = molecular target: T1, Human fibrinogen receptor (αIIbβ3) (Homo sapiens, UniProt P05106+P08514); assay: Purified IIb/IIIa receptor assay (solid phase receptor assay, competition with biotinylated vitronectin); format: binding; conditions: read-out: IIb/IIIa IC50
T1 construct: Human fibrinogen receptor (αIIbβ3) was purified from outdated platelets; from tissue; host or cells: outdated human platelets
Experimental: PURIFIED IIb/IIIa RECEPTOR ASSAY
Human fibrinogen receptor (αIIbβ3) was purified from outdated platelets. […] Biotinylated human vitronectin was prepared by coupling NHS-biotin from Pierce Chemical Company (Rockford, Ill.) to purified vitronectin as previously described. […] Anti-biotin antibody was obtained from Calbiochem (La Jolla, Calif.). Linbro microtiter plates were obtained from Flow Labs (McLean, Va.). ADP reagent was obtained from Sigma (St. Louis, Mo.).
(§1) Solid Phase Receptor Assays
(§2) The purified human fibrinogen receptor (αIIbβ3) was diluted from stock solutions to 1.0 μg/mL in Tris-buffered saline containing 1.0 mM Ca^++, Mg^++, and Mn^++, pH 7.4 (TBS^+++). The diluted receptor was immediately transferred to Linbro microtiter plates at 100 μL/well (100 ng receptor/well). The plates were sealed and incubated overnight at 4° C. to allow the receptor to bind to the wells. All remaining steps were at room temperature. The assay plates were emptied and 200 μL of 1% RIA grade BSA in TBS^+++ (TBS^+++/BSA) were added to block exposed plastic surfaces. Following a 2 hour incubation, the assay plates were washed with TBS^+++ using a 96 well plate washer. Logarithmic serial dilution of the test compound and controls were made starting at a stock concentration of 2 mM and using 2 nM biotinylated vitronectin in TBS^+++/BSA as the diluent. This premixing of labeled ligand with test (or control) ligand, and subsequent transfer of 50 μL aliquots to the assay plate was carried out with a CETUS Propette robot; the final concentration of the labeled ligand was 1 nM and the highest concentration of test compound was 1.0×10^−4 M. The competition occurred for two hours after which all wells were washed with a plate washer as before. Affinity purified horseradish peroxidase labeled goat anti-biotin antibody was diluted 1:3000 in TBS^+++/BSA and 125 μL were added to each well. After 30 minutes, the plates were washed and incubated with ODD/H2O2 substrate in 100 mM/L citrate buffer, pH 5.0. The plate was read with a microtiter plate reader at a wavelength of 450 nm and when the maximum-binding control wells reached an absorbance of about 1.0, the final A450 were recorded for analysis. The data were analyzed using a macro written for use with the EXCEL™ spreadsheet program. The mean, standard deviation, and % CV were determined for duplicate concentrations. The mean A450 values were normalized to the mean of four maximum-binding controls (no competitor added)(B-MAX). The normalized values were subjected to a four parameter curve fit algorithm, [Robard et al., Int.

[2] = molecular target: T2, Human vitronectin receptor (αvβ3) (Homo sapiens, UniProt P05106+P06756); assay: Vitronectin adhesion assay (solid phase receptor assay, competition with biotinylated vitronectin); format: binding; conditions: read-out: AvB3 IC50
T2 construct: Human vitronectin receptor (αvβ3) was purified from human placenta; from tissue; host or cells: human placenta
Experimental: VITRONECTIN ADHESION ASSAY
Assay buffer, OPD substrate tablets, and RIA grade BSA were obtained from Sigma (St. Louis, Mo.). Anti-biotin antibody was obtained from Calbiochem (La Jolla, Calif.). Linbro microtiter plates were obtained from Flow Labs (McLean, Va.). ADP reagent was obtained from Sigma (St. Louis, Mo.).
as §1
as §2, with “vitronectin” for “fibrinogen”, “(αvβ3)” for “(αIIbβ3)”, “TBS^+++(TBS^+++/BSA)” for “TBS^+++ (TBS^+++/BSA)”, “OPD/H2O2” for “ODD/H2O2”, “Citrate” for “citrate”, “algorithm [Rodbard” for “algorithm, [Robard”

IC50 [1] | IC50 [2] | Compound
> 100000 nM | 9730 nM | CCOC(=O)CC(NC(=O)CNC(=O)c1cccc(NC(=N)N)c1)c1ccoc1 (racemic) [Example 51, (±)ethyl β-[[2-[[[3-[(aminoiminomethyl)amino]phenyl]carbonyl]amino]acetyl]amino]furan-3-propanoate, trifluoroacetate salt]
3920 nM | 89.8 nM | CCN/C(=N\C)Nc1cccc(C(=O)NCC(=O)NC(CC(=O)O)c2ccc(F)cc2)c1 (racemic) [Example 297, (±)β-[[2-[[[3-[[(ethylamino)(methylimino)methyl]amino]phenyl]carbonyl]amino]acetyl]amino]-4-fluorobenzenepropanoic acid, trifluoroacetate salt]
18400 nM | 195 nM | O=C(O)CC(NC(=O)CNC(=O)c1cccc(Nc2cc(=O)[nH]c(=O)[nH]2)c1)c1cc(Cl)cc(Cl)c1 (stereo not drawn) [Example 284, 3,5-dichloro-β-[[2-[[[3-[[1,2,3,4-tetrahydro-2,4-dioxopyrimidin-6-yl)amino]phenyl]carbonyl]amino]acetyl]amino]benzenepropanoic acid]
4610 nM | 29.9 nM | CC(NC(=O)Nc1cccc(C(=O)NCC(=O)NC(CC(=O)O)c2cccnc2)c1)c1ccccc1 (stereo not drawn) [Example 271, β-[[2-[[[3-[[[(1-phenylethyl)amino]carbonyl]amino]phenyl]carbonyl]amino]acetyl]amino]pyridine-3-propanoic acid, trifluoroacetate salt]
802 nM | 7.24 nM | Cc1cccc(C(CC(=O)O)NC(=O)CNC(=O)c2cccc(NC(=N)N)c2)n1 (racemic) [Example 246, (±)β-[[2-[[[3-[(aminoiminomethyl)amino]phenyl]carbonyl]amino]acetyl]amino]-6-methylpyridine-2-propanoic acid, bis(trifluoroacetate)salt]
621 nM | 0.9 nM | N=C(N)Nc1cc(C(=O)O)cc(C(=O)NCC(=O)NC(CC(=O)O)c2cccnc2)c1 (stereo not drawn) [Example 289, β-[[2-[[[3-[(aminoiminomethyl)amino]-5-carboxyphenyl]carbonyl]amino]acetyl]amino]pyridine-3-propanoic acid, bis(trifluoroacetate)salt]
213 nM | 1.52 nM | N=C(N)Nc1cccc(C(=O)NCC(=O)NC(CC(=O)O)c2ccn[nH]2)c1 (stereo not drawn) [Example 252, β-[[2-[[[3-[(aminoiminomethyl)amino]phenyl]carbonyl]amino]acetyl]amino]-1H-pyrazole-3-propanoic acid, trifluoroacetate salt]
23.6 nM | 0.35 nM | N=C(N)Nc1cccc(C(=O)NCC(=O)NC(CC(=O)O)c2cncnc2)c1 (stereo not drawn) [Example 243, β-[[2-[[[3-[(aminoiminomethyl)amino]phenyl]carbonyl]amino]acetyl]amino][pyrimidine-5-propanoic acid, trifluoroacetate salt]
509 nM | 2.12 nM | N=C(N)Nc1cccc(C(=O)NCC(=O)NC(CC(=O)O)c2ccc(F)cc2)c1 (stereo not drawn) [Example 363, β-[[2-[[[3-[(aminoiminomethyl)amino]phenyl]carbonyl]amino]acetyl]amino]-4-fluorobenzenepropanoic acid, trifluoroacetate salt]
3170 nM | 229 nM | N=C(Nc1cccc(C(=O)NCC(=O)NC(CC(=O)O)c2cc(Cl)cc(Cl)c2)c1)N1CCCCC1 (stereo not drawn) [Example 285, 3,5-dichloro-β-[[2-[[[3-[[imino(1-piperidinyl)methyl]amino]phenyl]carbonyl]amino]acetyl]amino]benzenepropanoic acid, trifluoroacetate salt]
198 nM | 1.41 nM | N=C(N)Nc1cccc(C(=O)NCC(=O)NC(CC(=O)O)c2cc(Cl)c(O)c(Cl)c2)c1 (stereo not drawn) [Example 277, β-[[2-[[[3-[(aminoiminomethyl)amino]phenyl]carbonyl]amino]acetyl]amino]-3,5-dichloro-4-hydroxybenzenepropanoic acid, trifluoroacetate salt]
1540 nM | 0.35 nM | CC1(C)CN=C(Nc2cccc(C(=O)NCC(=O)NC(CC(=O)O)c3cc(Cl)cc(Cl)c3)c2)NC1 (racemic) [Example 367, (±)3,5-dichloro-β-[[2-[[[3-[(1,4,5,6-tetrahydro-5,5-dimethylpyrimidin-2-yl)amino]phenyl]carbonyl]amino]acetyl]amino]benzenepropanoic acid, trifluoroacetate salt]
29.9 nM | 0.54 nM | N=C(N)Nc1cccc(C(=O)NCC(=O)NC(CC(=O)O)c2cncc(Br)c2)c1 (racemic) [Example 235, (±)β-[[2-[[[3-[(aminoiminomethyl)amino]phenyl]carbonyl]amino]acetyl]amino]-5-bromopyridine-3-propanoic acid, bis(trifluoroacetate)salt, monohydrate]
246 nM | 2800 nM | Cc1ccc(C(=O)NCC(=O)NC(CC(=O)O)c2cccnc2)cc1N (stereo not drawn) [Example 84, β-[[2-[[(3-amino-4-methylphenyl)carbonyl]amino]acetyl]amino]pyridine-3-propanoic acid, bis(trifluoroacetate)salt]
22800 nM | 132 nM | Cc1ccc(C)c(C(CC(=O)O)NC(=O)CNC(=O)c2cccc(NC(=N)N)c2)c1 (racemic) [Example 181, (±)β-[[2-[[[3-[(aminoiminomethyl)amino]phenyl]carbonyl]amino]acetyl]amino]-2,5-dimethylbenzenepropanoic acid, trifluoroacetate salt]
4710 nM | 6.47 nM | N=C(N)Nc1cccc(C(=O)NCC(=O)NC(CC(=O)O)C(F)(F)F)c1 (stereo not drawn) [Example 261, 3-[[2-[[[3-[(aminoiminomethyl)amino]phenyl]carbonyl]aminoacetyl]amino]-4,4,4-trifluorobutanoic acid, trifluoroacetate salt]
706 nM | 6.19 nM | N=C(N)Nc1cccc(C(=O)NCC(=O)NC(CC(=O)O)c2cc(Br)cc(Cl)c2O)c1 (stereo not drawn) [Example 265, β-[[2-[[[3-[(aminoiminomethyl)amino]phenyl]carbonyl]amino]acetyl]amino]-5-bromo-3-chloro-2-hydroxybenzenepropanoic acid, trifluoroacetate salt]

Compound | IC50 [1] | IC50 [2]
ethyl 3S-[[2-[[[3-[[(cyanoimino)(methylamino)methyl]amino]phenyl]carbonyl]amino]acetyl]amino]-4-pentynoate [Example 140] | > 100000 nM | 4590 nM
